Experimental data as given in patent US4349545A, “Novel erythromycin a derivatives” (Roussel Uclaf, priority 1980, dated 1982).
In brackets after ≈: the same amount, converted by molar mass.

Legend:
[1] = test system: Streptococcus pyogenes A 561; test: serial dilution liquid medium MIC, Streptococcus pyogenes A 561; format: cell-based; details: A561, 24 hours at 37° C., read-out: minimum inhibiting concentration (MIC)
Protocol: (§1) The method was a serial dilution of liquid medium test wherein a series of tubes were prepared containing the same amount of sterile nutritive medium and increasing amounts of the test product was distributed in each tube. The tubes were then seeded with a bacterial strain and incubated for 24 hours in an oven at 37° C. The degree of inhibition was determined by transillumination to determine the minimum inhibiting concentration (MIC) express in μg/ml and the results are reported in the following Tables.

[2] = test system: Staphylococcus aureus UC 1128; test: serial dilution liquid medium MIC, Staphylococcus aureus UC 1128 pen-resistant; format: cell-based; details: UC1128; Staphylococcus aureus UC 1128 pen-resistant; 24 hours at 37° C.; read-out: minimum inhibiting concentration (MIC)
Protocol: as §1

[3] = test system: Staphylococcus aureus exp. n° 54 146; test: serial dilution liquid medium MIC, Staphylococcus aureus exp. n° 54 146; format: cell-based; details: Staphylococcus aureus exp. 54 146; 24 hours at 37° C.; read-out: minimum inhibiting concentration (MIC)
Protocol: as §1

[4] = test system: Staphylococcus aureus No. 54,146; test: In vivo activity in mice experimentally infected with Staphylococcus aureus No. 54,146; details: groups of 10 mice
Protocol: The test was effected with the compounds of the invention and erythromycin as a reference on groups of 10 mice weighing about 21 g experimentally infected with Staphylococcus aureus No. 54,146 by intraperitoneal administration of 0.5 ml of a 22 hour culture of the said organism in bouillon with a pH of 7 diluted to 1/6 with physiological water. The test compounds were orally administrated to the mice 1,5 and 24 hours after the infection and the mortality on the 8th day was determined.

[5] = test system: Streptococcus faecalis 99 F 74; test: serial dilution liquid medium MIC, Streptococcus faecalis 99 F 74; format: cell-based; details: Enterococcus faecalis, 99F74, 24 hours at 37° C., read-out: minimum inhibiting concentration (MIC)
Protocol: as §1

[6] = test system: Staphylococcus aureus 1061; test: serial dilution liquid medium MIC, Staphylococcus aureus 1061 pen-sensibles; format: cell-based; details: 24 hours at 37° C., read-out: minimum inhibiting concentration (MIC)
Protocol: as §1

[7] = test system: Streptococcus faecalis 5435; test: serial dilution liquid medium MIC, Streptococcus faecalis 5435; format: cell-based; details: Enterococcus faecalis, 24 hours at 37° C., read-out: minimum inhibiting concentration (MIC)
Protocol: as §1

[8] = test system: Streptococcus faecalis 5432; test: serial dilution liquid medium MIC, Streptococcus faecalis 5432; format: cell-based; details: Enterococcus faecalis, 24 hours at 37° C., read-out: minimum inhibiting concentration (MIC)
Protocol: as §1

[9] = dose 0,5mg oral, 1,5 and 24 hours after infection
[10] = dose 0,25mg oral, 1,5 and 24 hours after infection
[11] = dose 0,75mg oral, 1,5 and 24 hours after infection
[12] = dose 1mg oral, 1,5 and 24 hours after infection

CC[C@H]1OC(=O)[C@H](C)[C@@H](O[C@H]2C[C@@](C)(OC)[C@@H](O)[C@H](C)O2)[C@H](C)[C@@H](O[C@@H]2O[C@H](C)C[C@H](N(C)C)[C@H]2O)[C@](C)(O)C[C@@H](C)C(=NOCC2OCCO2)[C@H](C)[C@@H](O)[C@]1(C)O [Example 30, 9-[0-{(1,3-dioxolan-2-yl)-methyl}-oxime] of erythromycin]
MIC [1]: 0.05 µg/mL (≈ 0.0599 µM)
MIC [2]: 0.6 µg/mL (≈ 0.719 µM)
MIC [3]: 0.4 µg/mL (≈ 0.479 µM)
No. of mice living on the 8th day [4, 9]: 7 mice
No. of mice living on the 8th day [4, 10]: 2 mice
No. of mice living on the 8th day [4, 11]: 10 mice
MIC [5]: 0.2 µg/mL (≈ 0.24 µM)
MIC [6]: 0.4 µg/mL (≈ 0.479 µM)
MIC [7]: 2 µg/mL (≈ 2.4 µM)
MIC [8]: 0.4 µg/mL (≈ 0.479 µM)

CC[C@H]1OC(=O)[C@H](C)[C@@H](O[C@H]2C[C@@](C)(OC)[C@@H](O)[C@H](C)O2)[C@H](C)[C@@H](O[C@@H]2O[C@H](C)C[C@H](N(C)C)[C@H]2O)[C@](C)(O)C[C@@H](C)C(=NOC(C)CN(CC)CC)[C@H](C)[C@@H](O)[C@]1(C)O (some centres unmarked) [Example 46, 9-[O-(2-diethylamino-isopropyl)-oxime] of erythromycin]
MIC [1]: ≤ 0.01 µg/mL
MIC [2]: 0.6 µg/mL (≈ 0.696 µM)
MIC [3]: 0.4 µg/mL (≈ 0.464 µM)
MIC [5]: 0.05 µg/mL (≈ 0.058 µM)
MIC [6]: 0.2 µg/mL (≈ 0.232 µM)
MIC [7]: 0.1 µg/mL (≈ 0.116 µM)
MIC [8]: 0.05 µg/mL (≈ 0.058 µM)

CC[C@H]1OC(=O)[C@H](C)[C@@H](O[C@H]2C[C@@](C)(OC)[C@@H](O)[C@H](C)O2)[C@H](C)[C@@H](O[C@@H]2O[C@H](C)C[C@H](N(C)C)[C@H]2O)[C@](C)(O)C[C@@H](C)C(=NOCC(OC)OC)[C@H](C)[C@@H](O)[C@]1(C)O [Example 29, 9-[0-(2,2-dimethoxyethyl)-oxime] of erythromycin]
MIC [1]: 0.1 µg/mL (≈ 0.119 µM)
MIC [2]: 1 µg/mL (≈ 1.19 µM)
MIC [3]: 0.4 µg/mL (≈ 0.478 µM)
No. of mice living on the 8th day [4, 9]: 8 mice
No. of mice living on the 8th day [4, 10]: 2 mice
No. of mice living on the 8th day [4, 11]: 9 mice
No. of mice living on the 8th day [4, 12]: 10 mice
MIC [5]: 0.2 µg/mL (≈ 0.239 µM)
MIC [6]: 0.4 µg/mL (≈ 0.478 µM)
MIC [7]: 1 µg/mL (≈ 1.19 µM)
MIC [8]: 0.4 µg/mL (≈ 0.478 µM)

CC[C@H]1OC(=O)[C@H](C)[C@@H](O[C@H]2C[C@@](C)(OC)[C@@H](O)[C@H](C)O2)[C@H](C)[C@@H](O[C@@H]2O[C@H](C)C[C@H](N(C)C)[C@H]2O)[C@](C)(O)C[C@@H](C)C(=NOCOC)[C@H](C)[C@@H](O)[C@]1(C)O [Example 33, 9-[O-(methoxymethyl)-oxime] of erythromycin]
MIC [1]: 0.02 µg/mL (≈ 0.0252 µM)
MIC [2]: 0.4 µg/mL (≈ 0.504 µM)
MIC [3]: 0.2 µg/mL (≈ 0.252 µM)
No. of mice living on the 8th day [4, 9]: 10 mice
No. of mice living on the 8th day [4, 10]: 7 mice
MIC [5]: 0.1 µg/mL (≈ 0.126 µM)
MIC [6]: 0.1 µg/mL (≈ 0.126 µM)
MIC [7]: 0.2 µg/mL (≈ 0.252 µM)
MIC [8]: 0.1 µg/mL (≈ 0.126 µM)

CC[C@H]1OC(=O)[C@H](C)[C@@H](O[C@H]2C[C@@](C)(OC)[C@@H](O)[C@H](C)O2)[C@H](C)[C@@H](O[C@@H]2O[C@H](C)C[C@H](N(C)C)[C@H]2O)[C@](C)(O)C[C@@H](C)C(=NOCC2CO2)[C@H](C)[C@@H](O)[C@]1(C)O (some centres unmarked) [Example 47, 9-[0-(oxiramylmethyl)-oxime] of erythromycin]
MIC [1]: 0.05 µg/mL (≈ 0.0621 µM)
MIC [2]: 0.4 µg/mL (≈ 0.497 µM)
MIC [3]: 0.4 µg/mL (≈ 0.497 µM)
MIC [5]: 0.2 µg/mL (≈ 0.248 µM)
MIC [6]: 0.2 µg/mL (≈ 0.248 µM)
MIC [7]: 0.2 µg/mL (≈ 0.248 µM)
MIC [8]: 0.2 µg/mL (≈ 0.248 µM)

CC[C@H]1OC(=O)[C@H](C)[C@@H](O[C@H]2C[C@@](C)(OC)[C@@H](O)[C@H](C)O2)[C@H](C)[C@@H](O[C@@H]2O[C@H](C)C[C@H](N(C)C)[C@H]2O)[C@](C)(O)C[C@@H](C)C(=NOCCN2CCOCC2)[C@H](C)[C@@H](O)[C@]1(C)O [Example 35, 9-[O-(2-{morpholin-4-yl}-ethyl)oxime] of erythromycin]
MIC [1]: 0.05 µg/mL (≈ 0.058 µM)
MIC [2]: 1 µg/mL (≈ 1.16 µM)
MIC [3]: 0.6 µg/mL (≈ 0.696 µM)
No. of mice living on the 8th day [4, 9]: 8 mice
No. of mice living on the 8th day [4, 10]: 2 mice
No. of mice living on the 8th day [4, 11]: 9 mice
No. of mice living on the 8th day [4, 12]: 10 mice
MIC [5]: 0.4 µg/mL (≈ 0.464 µM)
MIC [6]: 0.4 µg/mL (≈ 0.464 µM)
MIC [7]: 1 µg/mL (≈ 1.16 µM)
MIC [8]: 0.2 µg/mL (≈ 0.232 µM)

CC[C@H]1OC(=O)[C@H](C)[C@@H](O[C@H]2C[C@@](C)(OC)[C@@H](O)[C@H](C)O2)[C@H](C)[C@@H](O[C@@H]2O[C@H](C)C[C@H](N(C)C)[C@H]2O)[C@](C)(O)C[C@@H](C)C(=NOCOCCN(CC)CC)[C@H](C)[C@@H](O)[C@]1(C)O [Example 23, 9-[0-{(2-diethylaminoethoxy)-methyl}-oxime] of erythromycin]
MIC [1]: 0.02 µg/mL (≈ 0.0228 µM)
MIC [2]: 1 µg/mL (≈ 1.14 µM)
MIC [3]: 0.6 µg/mL (≈ 0.683 µM)
MIC [5]: 0.1 µg/mL (≈ 0.114 µM)
MIC [6]: 0.4 µg/mL (≈ 0.456 µM)
MIC [7]: 0.2 µg/mL (≈ 0.228 µM)
MIC [8]: 0.1 µg/mL (≈ 0.114 µM)
